Test results reported in ChEMBL document CHEMBL3826873, “Efficient transmembrane anion transport mediated by a bis(imidazolyl)-functionalized bis(choloyl) conjugate” (Bioorg Med Chem Lett, 2016).
Active and inactive are the calls of the source. No cut-off for these calls is given here.

Columns and labels:
[1] = Anionophoric activity across egg yolk phosphatidylcholine-based liposomal membrane vesicles (unknown origin) assessed as efflux of chloride anions after 300 seconds in presence of sodium nitrate in external solution by electrode technique; assay type: ADME; settings: artificial membrane, 5 min
[2] = Anionophoric activity across egg yolk phosphatidylcholine-based liposomal membrane vesicles (unknown origin) assessed as relative chloride efflux measured as ratio of intrinsic rate constant and dissociation constant of self-association process after 300 seconds in presence of sodium nitrate in external solution by electrode technique; assay type: ADME; settings: artificial membrane, 5 min
[3] = Anionophoric activity across egg yolk phosphatidylcholine-based liposomal membrane vesicles (unknown origin) assessed as efflux of chloride anions at 3 mol% after 300 seconds in presence of Li+ by electrode technique; assay type: ADME; settings: artificial membrane, 5 min
[4] = Anionophoric activity across egg yolk phosphatidylcholine-based liposomal membrane vesicles (unknown origin) assessed as efflux of chloride anions at 3 mol% after 300 seconds in presence of Na+ by electrode technique; assay type: ADME; settings: artificial membrane, 5 min
[5] = Anionophoric activity across egg yolk phosphatidylcholine-based liposomal membrane vesicles (unknown origin) assessed as efflux of chloride anions at 3 mol% after 300 seconds in presence of K+ by electrode technique; assay type: ADME; settings: artificial membrane, 5 min
[6] = Anionophoric activity across egg yolk phosphatidylcholine-based liposomal membrane vesicles (unknown origin) assessed as efflux of chloride anions at 3 mol% after 300 seconds in presence of Rb+ by electrode technique; assay type: ADME; settings: artificial membrane, 5 min
[7] = Anionophoric activity across egg yolk phosphatidylcholine-based liposomal membrane vesicles (unknown origin) assessed as efflux of chloride anions at 3 mol% after 300 seconds in presence of Cs+ by electrode technique; assay type: ADME; settings: artificial membrane, 5 min
[8] = Anionophoric activity across egg yolk phosphatidylcholine-based liposomal membrane vesicles (unknown origin) assessed as efflux of chloride anions at 5 mol% after 300 seconds in presence of sodium sulfate by electrode technique; assay type: ADME; settings: artificial membrane, 5 min
[9] = Anionophoric activity across egg yolk phosphatidylcholine-based liposomal membrane vesicles (unknown origin) assessed as induction of pH discharge at 3 mol% after 20 mins in presence of NO3- by fluorescence based pyranine entrap assay; settings: artificial membrane
[10] = Anionophoric activity across egg yolk phosphatidylcholine-based liposomal membrane vesicles (unknown origin) assessed as induction of pH discharge at 3 mol% after 20 mins in presence of Cl- by fluorescence based pyranine entrap assay; settings: artificial membrane
[11] = Anionophoric activity across egg yolk phosphatidylcholine-based liposomal membrane vesicles (unknown origin) assessed as induction of pH discharge at 3 mol% after 20 mins in presence of Br- by fluorescence based pyranine entrap assay; settings: artificial membrane
[12] = Anionophoric activity across egg yolk phosphatidylcholine-based liposomal membrane vesicles (unknown origin) assessed as induction of pH discharge at 3 mol% after 20 mins in presence of I- by fluorescence based pyranine entrap assay; settings: artificial membrane
[13] = Anionophoric activity across 70% POPC/30% cholesterol-based liposomal membrane vesicles (unknown origin) assessed as induction of pH discharge at 3 mol% after 20 mins by fluorescence based pyranine entrap assay

Activity [1] | Ratio [2] [×10⁻² /s] | Activity [3] | Activity [4] | Activity [5] | Activity [6] | Activity [7] | Activity [8] | Activity [9] | Activity [10] | Activity [11] | Activity [12] | SMILES | Activity [13]
Dose-dependent effect | 1.45 | Active | Active | Active | Active | Active | Active | Active | Active | Active | Active | C[C@H](CCC(=O)NC(Cc1cnc[nH]1)C(=O)NCc1ccc(CNC(=O)C(Cc2cnc[nH]2)NC(=O)CC[C@@H](C)[C@@H]2CC[C@@H]3[C@@H]4[C@@H](C[C@@H](O)[C@]32C)[C@]2(C)CC[C@H](O)C[C@@H]2C[C@@H]4O)cc1)[C@H]1CC[C@H]2[C@@H]3[C@H](O)C[C@@H]4C[C@H](O)CC[C@]4(C)[C@H]3C[C@H](O)[C@]12C (some centres undefined) | Active
Not Active | – | – | – | – | – | – | – | – | – | – | – | C[C@H](CCC(=O)NCc1ccc(CNC(=O)CC[C@@H](C)[C@H]2CC[C@H]3[C@@H]4[C@H](O)C[C@@H]5C[C@H](O)CC[C@]5(C)[C@H]4C[C@H](O)[C@]23C)cc1)[C@H]1CC[C@H]2[C@@H]3[C@H](O)C[C@@H]4C[C@H](O)CC[C@]4(C)[C@H]3C[C@H](O)[C@]12C | –
